Experimental data published in patent US11919855B2, “Substituted pyrrolidones and piperidones as small molecule inhibitors of EZH2 and EED protein binding” (Northwestern University, priority 2021, dated 2024).

The compounds below were run against EED-EZH2 (Homo sapiens (Human), UniProt O75530) (assay: EED-EZH2 AlphaScreen assay). Details: 8.7 nM EZH2, 5.0 nM EED, read-out: IC50 Potency Code.
Format: binding
Description: Biological activity of exemplary substituted pyrrolidones and piperidones was determined by the EED-EZH2 AlphaScreen assay according the following methodology.
EZH2 (non-complexed), His-GST-tags
Anti-FLAG AlphaLISA Acceptor Beads
AlphaScreen GSH Donor Beads
Assay Protocol (Calculated for 384 Wells or 1 Plate)
• 1. Thaw EED and EZH2 proteins on ice. • 2. Prepare 1× HMT Buffer 2: • 1.5 mL of 4× HMT Buffer 2+4.5 mL ddH2O. • 3. Prepare 1.2× EED-EZH2 solution in 1× HMT Buffer 2: 3.4 mL total • 2.1 uL of EED (0.41 mg/mL, 8.04 uM, 1:1608 dilution)+14 uL of EZH2 (0.24 mg/mL, 2.11 uM, 1:243 dilution)+3.384 mL of 1× HMT Buffer 2 • 4. Prepare 1.2× EZH2 solution in 1× HMT Buffer 2 (positive control): 0.168 mL total • 0.69 uL of EZH2 (0.24 mg/mL, 2.11 uM, 1:243 dilution)+167 uL of 1× HMT Buffer 2 • 5. Add 10 μL of 1.2× EED-EZH2 or 1.2× EZH2 solution to each well. • 6. Add compounds in DMSO via Echo transfer and 30 nL DMSO for control wells. • 7. Centrifuge at 15,000 rpm for 10 seconds and allow to incubate at rt for 1 hour. Step Two • 1. Prepare 6× Anti-FLAG and GSH Donor beads in 1× HMT Buffer 2 in the dark: 1 mL total • 10 uL of Anti-FLAG (1:100 dilution)+5 uL of GSH Donor (1:200 dilution)+985 uL of 1× HMT Buffer 2 • 2. Add 2 μL of bead solution to each well. • 3. Centrifuge at 15,000 rpm for 10 seconds and allow to incubate at rt for 1 hour in the dark. • 4. Read plate. Final Concentrations: • 12 μL volume per well • 8.7 nM EZH2 • 5.0 nM EED • DMSO<0.5% Calculations: • 1. Average EZH2 only wells (positive control) and subtract from all other wells. • 2. Average EED-EZH2 only wells (negative control) to indicate 100% signal or 0% inhibition. • 3. Normalize each well to the average 100% signal from step 2. • 4. Report either as normalized % inhibition or normalized % signal. • Use GraphPad to Calculate IC50.

Chain of EED-EZH2 (O75530 2-441): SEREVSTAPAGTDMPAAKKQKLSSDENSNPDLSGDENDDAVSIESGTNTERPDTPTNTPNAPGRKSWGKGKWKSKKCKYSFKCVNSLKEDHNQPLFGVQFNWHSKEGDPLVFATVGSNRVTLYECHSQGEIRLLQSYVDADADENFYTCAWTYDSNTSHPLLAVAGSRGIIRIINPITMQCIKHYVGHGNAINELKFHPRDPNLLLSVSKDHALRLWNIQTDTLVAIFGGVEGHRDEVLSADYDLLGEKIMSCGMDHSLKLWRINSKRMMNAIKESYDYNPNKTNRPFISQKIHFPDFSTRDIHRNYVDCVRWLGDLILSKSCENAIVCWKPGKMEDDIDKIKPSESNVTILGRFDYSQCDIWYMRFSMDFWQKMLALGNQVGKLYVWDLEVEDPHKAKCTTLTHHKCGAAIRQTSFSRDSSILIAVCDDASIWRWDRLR

Structure (SMILES)	IC50
Cc1ccc(O)c(C(=O)NC2CC(=O)N(Cc3ccccc3[N+](=O)[O-])C2)c1 (stereo not drawn) [NUCC-0202653]	1 to 10 µM
COc1ccc(C)cc1C(=O)NC1CC(=O)N(Cc2ccccc2[N+](=O)[O-])C1 (stereo not drawn) [NUCC-0202654]	> 50 µM
COc1cccc(CC(=O)NC2CC(=O)N(Cc3ccccc3[N+](=O)[O-])C2)c1 (stereo not drawn) [NUCC-0202655]	> 50 µM
Cc1c(C(=O)NC2CC(=O)N(Cc3ccccc3[N+](=O)[O-])C2)cccc1[N+](=O)[O-] (stereo not drawn) [NUCC-0202656]	> 50 µM
O=C(NC1CC(=O)N(Cc2ccccc2[N+](=O)[O-])C1)c1cccnc1 (stereo not drawn) [NUCC-0202657]	> 50 µM
O=C(O)c1ccccc1C(=O)NC1CC(=O)N(Cc2ccccc2[N+](=O)[O-])C1 (stereo not drawn) [NUCC-0202658]	> 50 µM
N#Cc1cccc(C(=O)NC2CC(=O)N(Cc3ccccc3[N+](=O)[O-])C2)c1 (stereo not drawn) [NUCC-0202659]	> 50 µM
COc1cccc(CC(=O)NC2CC(=O)N(Cc3ccccc3C(F)(F)F)C2)c1 (stereo not drawn) [NUCC-0202661]	> 50 µM
O=C(NC1CC(=O)N(Cc2ccccc2C(F)(F)F)C1)c1cccnc1 (stereo not drawn) [NUCC-0202663]	> 50 µM
O=C(NC1CC(=O)N(Cc2ccccc2C(F)(F)F)C1)c1cccc(-c2ccccc2)c1 (stereo not drawn) [NUCC-0202667]	> 50 µM
O=C(NC1CC(=O)N(Cc2ccccc2C(F)(F)F)C1)c1ccc(Cl)c(Cl)c1 (stereo not drawn) [NUCC-0202670]	> 50 µM
Cc1ccc(O)c(C(=O)NC2CC(=O)N(Cc3ccc(Cl)c(Cl)c3)C2)c1 (stereo not drawn) [NUCC-0202672]	10 to 50 µM
COc1ccc(C)cc1C(=O)NC1CC(=O)N(Cc2ccc(Cl)c(Cl)c2)C1 (stereo not drawn) [NUCC-0202673]	> 50 µM
O=C(NC1CC(=O)N(Cc2ccc(Cl)c(Cl)c2)C1)c1ccccc1O (stereo not drawn) [NUCC-0202674]	> 50 µM
O=C(NC1CC(=O)N(Cc2ccc(Cl)c(Cl)c2)C1)c1cccnc1 (stereo not drawn) [NUCC-0202675]	> 50 µM
O=C(O)c1ccccc1C(=O)NC1CC(=O)N(Cc2ccc(Cl)c(Cl)c2)C1 (stereo not drawn) [NUCC-0202676]	> 50 µM
O=C(NC1CC(=O)N(Cc2ccc(Cl)c(Cl)c2)C1)c1cccc(-c2ccccc2)c1 (stereo not drawn) [NUCC-0202677]	> 50 µM
Cc1cccc(C(=O)NC2CC(=O)N(Cc3ccc(Cl)c(Cl)c3)C2)c1 (stereo not drawn) [NUCC-0202678]	> 50 µM
Cc1ccc(O)c(C(=O)N(C)C2CC(=O)N(Cc3ccccc3C(F)(F)F)C2)c1 (stereo not drawn) [NUCC-0202747]	> 50 µM
CC(C)(C)c1ccc(O)c(C(=O)NC2CC(=O)N(Cc3ccccc3C(F)(F)F)C2)c1 (stereo not drawn) [NUCC-0202752]	> 50 µM
O=C(NC1CC(=O)N(Cc2ccccc2C(F)(F)F)C1)c1cnon1 (stereo not drawn) [NUCC-0202755]	> 50 µM

Structure (SMILES)	IC50
O=C(NC1CC(=O)N(Cc2ccccc2C(F)(F)F)C1)c1ccnc(Cl)n1 (stereo not drawn) [NUCC-0202757]	> 50 µM
O=C(NC1CC(=O)N(Cc2ccccc2C(F)(F)F)C1)c1cscn1 (stereo not drawn) [NUCC-0202759]	> 50 µM
Cn1nccc1C(=O)NC1CC(=O)N(Cc2ccccc2C(F)(F)F)C1 (stereo not drawn) [NUCC-0202764]	> 50 µM
O=C(NC1CC(=O)N(Cc2ccccc2C(F)(F)F)C1)c1ccc(Br)c(O)c1 (stereo not drawn) [NUCC-0202765]	> 50 µM
O=C1CC(Nc2n[nH]c3ccccc23)CN1Cc1ccccc1C(F)(F)F (stereo not drawn) [NUCC-0202766]	> 50 µM
Cc1c[nH]c(=O)c(C(=O)NC2CC(=O)N(Cc3ccccc3C(F)(F)F)C2)c1 (stereo not drawn) [NUCC-0202828]	> 50 µM
Cc1ccc(O)c(S(=O)(=O)NC2CC(=O)N(Cc3ccccc3C(F)(F)F)C2)c1 (stereo not drawn) [NUCC-0202835]	> 50 µM
CC(C)(CO)C(=O)NC1CC(=O)N(Cc2ccccc2C(F)(F)F)C1 (stereo not drawn) [NUCC-0202851]	> 50 µM
O=C(NC1CC(=O)N(Cc2ccccc2C(F)(F)F)C1)c1cc(C(F)(F)F)ccc1O (stereo not drawn) [NUCC-0202965]	1 to 10 µM
Cc1ccc(O)c(C(=O)NC2CC(=O)N(Cc3ccccc3C(=O)O)C2)c1 (stereo not drawn) [NUCC-0202966]	1 to 10 µM
COC(=O)c1ccccc1CN1CC(NC(=O)c2cc(C)ccc2O)CC1=O (stereo not drawn) [NUCC-0202967]	1 to 10 µM
Cc1ccc(O)c(C(=O)NC2CC(=O)N(Cc3ccccc3C(F)(F)F)C2)n1 (stereo not drawn) [NUCC-0202968]	> 50 µM
Cc1ccc(O)c(C(=O)Nc2ccc(=O)n(Cc3ccccc3C(F)(F)F)c2)c1 [NUCC-0202969]	> 50 µM
CC(=O)N1CCCC(CN2CC(NC(=O)c3cc(C)ccc3O)CC2=O)C1 (stereo not drawn) [NUCC-0202970]	10 to 50 µM
Cc1ccc(O)c(C(=O)NC2CCC(=O)N(Cc3ccccc3C(F)(F)F)C2)c1 (stereo not drawn) [NUCC-0202971]	1 to 10 µM
COc1ccc(CN2C[C@@H](NC(=O)c3cc(C)ccc3O)CC2=O)c(OC)c1 [NUCC-0202972]	10 to 50 µM
Cc1ccc(O)c(C(=O)N[C@H]2CC(=O)N(Cc3ccccc3Cl)C2)c1 [NUCC-0202973]	10 to 50 µM
Cc1ccc(O)c(C(=O)N[C@H]2CC(=O)N(Cc3ccc(C(F)(F)F)cc3)C2)c1 [NUCC-0202974]	> 50 µM
Cc1ccc(O)c(C(=O)N[C@H]2CC(=O)N(Cc3ccc(Cl)c(Cl)c3)C2)c1 [NUCC-0202975]	10 to 50 µM
Cc1ccc(O)c(C(=O)N[C@H]2CC(=O)N(C3CCc4ccccc43)C2)c1 (stereo partly drawn) [NUCC-0202976]	> 50 µM

More lines, now with the values ahead:

IC50	Structure (SMILES)
1 to 10 µM	Cc1ccc(O)c(C(=O)NC2CC(=O)N(Cc3ccccc3C(F)(F)F)C2)c1 (stereo not drawn) [NUCC-0163358]
10 to 50 µM	COc1ccc(C)cc1C(=O)NC1CC(=O)N(Cc2ccccc2C(F)(F)F)C1 (stereo not drawn) [NUCC-0202660]
> 50 µM	Cc1c(C(=O)NC2CC(=O)N(Cc3ccccc3C(F)(F)F)C2)cccc1[N+](=O)[O-] (stereo not drawn) [NUCC-0202662]
> 50 µM	O=C(O)c1ccccc1C(=O)NC1CC(=O)N(Cc2ccccc2C(F)(F)F)C1 (stereo not drawn) [NUCC-0202666]
> 50 µM	Cc1cccc(C(=O)NC2CC(=O)N(Cc3ccccc3C(F)(F)F)C2)c1 (stereo not drawn) [NUCC-0202668]
> 50 µM	O=C(NC1CC(=O)N(Cc2ccccc2C(F)(F)F)C1)c1ccccc1O (stereo not drawn) [NUCC-0202669]
> 50 µM	O=C(NC1CC(=O)N(Cc2ccccc2C(F)(F)F)C1)c1ccc2cc[nH]c2c1 (stereo not drawn) [NUCC-0202671]
> 50 µM	O=C(NC1CC(=O)N(Cc2ccccc2C(F)(F)F)C1)c1cccc2cc[nH]c12 (stereo not drawn) [NUCC-0202749, N-(5-oxo-1-(2-(trifluoromethyl)benzyl)pyrrolidin-3-yl)-1H-indole-7-carboxamide]
> 50 µM	Cc1ccc(C(=O)NC2CC(=O)N(Cc3ccccc3C(F)(F)F)C2)c(O)c1 (stereo not drawn) [NUCC-0202750]
> 50 µM	Cc1cccc(C(=O)NC2CC(=O)N(Cc3ccccc3C(F)(F)F)C2)c1O (stereo not drawn) [NUCC-0202751]
> 50 µM	CCc1ccc(O)c(C(=O)NC2CC(=O)N(Cc3ccccc3C(F)(F)F)C2)c1 (stereo not drawn) [NUCC-0202753]
> 50 µM	Cc1ccc(O)cc1C(=O)NC1CC(=O)N(Cc2ccccc2C(F)(F)F)C1 (stereo not drawn) [NUCC-0202754]
> 50 µM	O=C(Cc1cc2ccccc2[nH]1)NC1CC(=O)N(Cc2ccccc2C(F)(F)F)C1 (stereo not drawn) [NUCC-0202756]
> 50 µM	O=C(NC1CC(=O)N(Cc2ccccc2C(F)(F)F)C1)c1ccc2ccccc2n1 (stereo not drawn) [NUCC-0202758]
> 50 µM	O=C(NC1CC(=O)N(Cc2ccccc2C(F)(F)F)C1)c1coc2ccccc12 (stereo not drawn) [NUCC-0202760]
10 to 50 µM	O=C(NC1CC(=O)N(Cc2ccccc2C(F)(F)F)C1)c1ccc2ccccc2c1O (stereo not drawn) [NUCC-0202761]
> 50 µM	O=C(NC1CC(=O)N(Cc2ccccc2C(F)(F)F)C1)c1ccc(Cl)nc1Cl (stereo not drawn) [NUCC-0202762]
> 50 µM	O=C(NC1CC(=O)N(Cc2ccccc2C(F)(F)F)C1)c1ccccc1F (stereo not drawn) [NUCC-0202763]
> 50 µM	O=C(NC1CC(=O)N(Cc2ccccc2C(F)(F)F)C1)c1cc(Cl)nc2ccccc12 (stereo not drawn) [NUCC-0202792]
> 50 µM	Cc1ccc(N)c(C(=O)NC2CC(=O)N(Cc3ccccc3C(F)(F)F)C2)c1 (stereo not drawn) [NUCC-0202793]
> 50 µM	Cc1ccc(O)c(C(=O)NC2CC(=O)N(Cc3ccccc3C(F)(F)F)C2)c1 (stereo not drawn) [NUCC-0202826]
> 50 µM	Cc1cccc(O)c1C(=O)NC1CC(=O)N(Cc2ccccc2C(F)(F)F)C1 (stereo not drawn) [NUCC-0202827]
10 to 50 µM	O=C(NC1CC(=O)N(Cc2ccccc2C(F)(F)F)C1)c1cc2ccccc2cc1O (stereo not drawn) [NUCC-0202830]
10 to 50 µM	COc1ccc(O)c(C(=O)NC2CC(=O)N(Cc3ccccc3C(F)(F)F)C2)c1 (stereo not drawn) [NUCC-0202831]
1 to 10 µM	O=C(NC1CC(=O)N(Cc2ccccc2C(F)(F)F)C1)c1cc(F)ccc1O (stereo not drawn) [NUCC-0202832]
1 to 10 µM	O=C(NC1CC(=O)N(Cc2ccccc2C(F)(F)F)C1)c1cc(Cl)ccc1O (stereo not drawn) [NUCC-0202833]
1 to 10 µM	O=C(NC1CC(=O)N(Cc2ccccc2C(F)(F)F)C1)c1cc(Br)ccc1O (stereo not drawn) [NUCC-0202834]
10 to 50 µM	O=C(NC1CC(=O)N(Cc2ccccc2C(F)(F)F)C1)c1cc(I)ccc1O (stereo not drawn) [NUCC-0202852]
